According to US20180007908A1, “Pesticidal Mixtures” (BASF SE, priority 2007, published 2018):

Experiments:
Type in all cases: cell-based
Pyricularia oryzae [1] = experiment: microbe, parasite or virus in culture; settings: 168 h, read-out: Observed activity (%)
Botrytis cinerea = experiment: Use Example No. 6: activity against gray mold Botrytis cinerea in the microtiter test (Botrci); settings: 168 h, day 7 post-inoculation, efficacy as % of untreated control, read-out: Observed activity (%)
Pyricularia oryzae [2] = experiment: microbe, parasite or virus in culture; settings: 168 h, read-out: Observed activity (%); remark: listed apart in the source

N#Cc1nn(-c2c(Cl)cc(C(F)(F)F)cc2Cl)c(N)c1[S+]([O-])C(F)(F)F (stereo not drawn) [fipronil] was tested. Which inhibition at 2 ppm (Pyricularia oryzae [1]) did it give?
The inhibition at 2 ppm was 5%.

What does the source list for COC(=O)N(OC)c1ccccc1COc1ccn(-c2ccc(Cl)cc2)n1 [pyraclostrobin]?
inhibition at 0.016 ppm (Botrytis cinerea): 4%; inhibition at 0.001 ppm (Pyricularia oryzae [2]): 31%
